Converted amounts (≈) assume the structure as drawn.
These compounds were tested on H. influenza Hi4 efflux pump KO (assay: Antibacterial activity assay (MIC), H. influenza Hi4).
Type: cell-based

Compound	MIC Hi4 efflux pump KO	MIC
8-O-4-Bromo-5-Chloro-1H-pyrrole-2′-carbonylbranimycin [Compound 35]	16 µg/mL	–
8-O-5-Bromo-4-Chloro-1H-pyrrole-2′-carbonylbranimycin [Compound 33]	16 µg/mL	–
COC[C@H]1[C@@H](O)[C@@H]2O[C@@]34/C(C)=C/[C@@H](C)[C@@H]([C@H](O)COC)OC(=O)[C@H](COC)[C@H]3C=C[C@@H]2[C@H]4[C@@H]1O [Branimycin, reference compound]	–	4 µg/mL (≈ 8.29 µM)
COC[C@@H](O)[C@H]1OC(=O)[C@H](COC)[C@H]2C=C[C@H]3[C@H]4O[C@]2(/C(C)=C/[C@H]1C)[C@@H]3[C@H](O)[C@@H](C)[C@H]4O [Compound 1, Baleomycin]	–	2 µg/mL (≈ 4.42 µM)
COC[C@@H]1[C@@H](O)[C@@H]2[C@H]3C=C[C@@H]4[C@@H](COC)C(=O)O[C@H]([C@H](O)COC)[C@H](C)/C=C(\C)[C@@]24O[C@H]3[C@@H]1OC(=O)c1ccc[nH]1 [Compound 2, 8-O-1H-pyrrole-2′-carbonylbranimycin]	–	4 µg/mL (≈ 6.95 µM)
COC[C@@H](O)[C@H]1OC(=O)[C@H](COC)[C@H]2C=C[C@H]3[C@H]4O[C@]2(/C(C)=C/[C@H]1C)[C@@H]3[C@H](O)[C@@H](C)[C@H]4OC(=O)c1ccc[nH]1 [Compound 3, 8-O-1H-pyrrole-2′-carbonylbaleomycin]	–	1 µg/mL (≈ 1.83 µM)
COCC[C@H]1OC(=O)[C@H](COC)[C@H]2C=C[C@H]3[C@H]4O[C@]2(/C(C)=C/[C@H]1C)[C@@H]3[C@H](O)[C@@H](COC)[C@H]4OC(=O)c1ccc[nH]1 [Compound 4, 17-Deoxy-8-O-1H-pyrrole-2′-carbonylbranimycin]	–	16 µg/mL (≈ 28.6 µM)
COC[C@@H]1[C@@H](O)[C@@H]2[C@H]3C=C[C@@H]4[C@@H](COC)C(=O)O[C@H]([C@H](O)COC)[C@H](C)/C=C(\C)[C@@]24O[C@H]3[C@@H]1OC(=O)c1ccoc1 [Compound 5, 8-O-Furane-3′-carbonylbranimycin]	–	8 µg/mL (≈ 13.9 µM)
COC[C@@H]1[C@@H](O)[C@@H]2[C@H]3C=C[C@@H]4[C@@H](COC)C(=O)O[C@H]([C@H](O)COC)[C@H](C)/C=C(\C)[C@@]24O[C@H]3[C@@H]1OC(=O)c1ccc(C)[nH]1 [Compound 6, 8-O-5-Methyl-1H-pyrrole-2′-carbonylbranimycin]	–	32 µg/mL (≈ 54.3 µM)
COC[C@@H](O)[C@H]1OC(=O)[C@H](COC)[C@H]2C=C[C@H]3[C@H]4O[C@]2(/C(C)=C/[C@H]1C)[C@@H]3[C@H](O)[C@@H](C)[C@H]4OC(=O)c1ccoc1 [Compound 7, 8-O-Furane-3′-carbonylbaleomycin]	–	0.5 µg/mL (≈ 0.915 µM)
COC[C@@H]1[C@@H](O)[C@@H]2[C@H]3C=C[C@@H]4[C@@H](COC)C(=O)O[C@H]([C@H](O)COC)[C@H](C)/C=C(\C)[C@@]24O[C@H]3[C@@H]1OC(=O)c1cocn1 [Compound 8, 8-O-Oxazole-4′-carbonylbranimycin]	–	> 64 µg/mL
COC[C@@H]1[C@@H](O)[C@@H]2[C@H]3C=C[C@@H]4[C@@H](COC)C(=O)O[C@H]([C@H](O)COC)[C@H](C)/C=C(\C)[C@@]24O[C@H]3[C@@H]1OC(=O)c1ccsc1 [Compound 9, 8-O-Thiophene-3′-carbonylbranimycin]	–	16 µg/mL (≈ 27 µM)
COC[C@@H]1[C@@H](O)[C@@H]2[C@H]3C=C[C@@H]4[C@@H](COC)C(=O)O[C@H]([C@H](O)COC)[C@H](C)/C=C(\C)[C@@]24O[C@H]3[C@@H]1OC(=O)c1cc[nH]n1 [Compound 10, 8-O-1H-Pyrazole-3′-carbonylbranimycin]	–	32 µg/mL (≈ 55.5 µM)
COC[C@@H]1[C@@H](O)[C@@H]2[C@H]3C=C[C@@H]4[C@@H](COC)C(=O)O[C@H]([C@H](O)COC)[C@H](C)/C=C(\C)[C@@]24O[C@H]3[C@@H]1OC(=O)c1ccoc1C [Compound 11, 8-O-2-Methylfurane-3′-carbonylbranimycin]	–	32 µg/mL (≈ 54.2 µM)
COC[C@@H]1[C@@H](O)[C@@H]2[C@H]3C=C[C@@H]4[C@@H](COC)C(=O)O[C@H]([C@H](O)COC)[C@H](C)/C=C(\C)[C@@]24O[C@H]3[C@@H]1OC(=O)c1cc(C)c[nH]1 [Compound 12, 8-O-4-Methyl-1H-pyrrole-2′-carbonylbranimycin]	–	4 µg/mL (≈ 6.78 µM)
COC[C@@H]1[C@@H](O)[C@@H]2[C@H]3C=C[C@@H]4[C@@H](COC)C(=O)O[C@H]([C@H](O)COC)[C@H](C)/C=C(\C)[C@@]24O[C@H]3[C@@H]1OC(=O)c1ccon1 [Compound 13, 8-O-Isoxazole-3′-carbonylbranimycin]	–	16 µg/mL (≈ 27.7 µM)
COC[C@@H]1[C@@H](O)[C@@H]2[C@H]3C=C[C@@H]4[C@@H](COC)C(=O)O[C@H]([C@H](O)COC)[C@H](C)/C=C(\C)[C@@]24O[C@H]3[C@@H]1OC(=O)c1cnco1 [Compound 14, 8-O-Oxazole-5′ carbonylbranimycin]	–	64 µg/mL (≈ 111 µM)
COC[C@H]1[C@@H](O)[C@@H]2O[C@@]34/C(C)=C/[C@@H](C)[C@@H]([C@H](O)COC)OC(=O)[C@H](COC)[C@H]3CC[C@@H]2[C@H]4[C@@H]1O [Compound 15, 4,5-Dihydro-branimycin]	–	64 µg/mL (≈ 132 µM)

Compound	MIC Hi4 efflux pump KO	MIC
COC[C@@H]1[C@@H](O)[C@@H]2[C@H]3CC[C@@H]4[C@@H](COC)C(=O)O[C@H]([C@H](O)COC)[C@H](C)/C=C(\C)[C@@]24O[C@H]3[C@@H]1OC(=O)c1ccc[nH]1 [Compound 16, 4,5-Dihydro-8-O-1H-pyrrole-2′-carbonylbranimycin]	–	16 µg/mL (≈ 27.7 µM)
COCC[C@H]1OC(=O)[C@H](COC)[C@H]2C=C[C@H]3[C@H]4O[C@]2(/C(C)=C/[C@H]1C)[C@@H]3[C@H](O)[C@@H](COC)[C@H]4O [Compound 17, 17-Deoxybranimycin]	–	8 µg/mL (≈ 17.1 µM)
COC[C@@H]1[C@@H](O)[C@@H]2[C@H]3C=C[C@@H]4[C@@H](COC)C(=O)O[C@H]([C@@H](COC)OC)[C@H](C)/C=C(\C)[C@@]24O[C@H]3[C@@H]1OC(=O)c1ccc[nH]1 [Compound 18, 17-O-Methyl-8-O-1H-pyrrole-2′-carbonylbranimycin]	–	4 µg/mL (≈ 6.78 µM)
COC[C@@H]1[C@@H](O)[C@@H]2[C@H]3C=C[C@@H]4[C@@H](COC)C(=O)O[C@H]([C@H](O)COC)[C@H](C)/C=C(\C)[C@@]24O[C@H]3[C@@H]1OC(=O)c1cc(F)c[nH]1 [Compound 19, 8-O-4-Fluoro-1H-pyrrole-2′-carbonylbranimycin]	–	0.25 µg/mL (≈ 0.421 µM)
COCC(=O)[C@H]1OC(=O)[C@H](COC)[C@H]2C=C[C@H]3[C@H]4O[C@]2(/C(C)=C/[C@H]1C)[C@@H]3[C@H](O)[C@@H](COC)[C@H]4OC(=O)c1ccc[nH]1 [Compound 20, 18-Deoxy-18-oxo-8-O-1H-pyrrole-2′-carbonylbranimycin]	–	32 µg/mL (≈ 55.8 µM)
COC[C@@H]1[C@@H](O)[C@@H]2[C@H]3C=C[C@@H]4[C@@H](COC)C(=O)OC[C@H](C)/C=C(\C)[C@@]24O[C@H]3[C@@H]1OC(=O)c1ccc[nH]1 [Compound 22, 17,18-Dinor-8-O-1H-pyrrole-2′-carbonybranimycin]	–	32 µg/mL (≈ 63.8 µM)
COC[C@@H](O)[C@H]1OC(=O)[C@H](COC)[C@H]2C=C[C@H]3[C@H]4O[C@]2(/C(C)=C/[C@H]1C)[C@@H]3[C@H](O)[C@@H](C)[C@H]4OC(=O)c1cc(F)c[nH]1 [Compound 23, 8-O-4-Fluoro-1H-pyrrole-2′-carbonylbaleomycin]	–	0.5 µg/mL (≈ 0.887 µM)
COC[C@@H]1[C@@H](O)[C@@H]2[C@H]3C=C[C@@H]4[C@@H](COC)C(=O)O[C@H](C(C)(O)COC)[C@H](C)/C=C(\C)[C@@]24O[C@H]3[C@@H]1OC(=O)c1ccc[nH]1 (some centres unmarked) [Compound 24, 17-Methyl-8-O-1H-pyrrole-2′-carbonylbranimycin]	–	8 µg/mL (≈ 13.6 µM)
COCC(=NO)[C@H]1OC(=O)[C@H](COC)[C@H]2C=C[C@H]3[C@H]4O[C@]2(/C(C)=C/[C@H]1C)[C@@H]3[C@H](O)[C@@H](COC)[C@H]4OC(=O)c1ccc[nH]1 [Compound 25, 18-Deoxy-18-oximino-8-O-1H-pyrrole-2′-carbonylbranimycin]	–	1 µg/mL (≈ 1.7 µM)
COC[C@@H]1[C@@H](O)[C@@H]2[C@H]3C=C[C@@H]4[C@@H](COC)C(=O)O[C@H]([C@H](O)COC)[C@H](C)/C=C(\C)[C@@]24O[C@H]3[C@@H]1OC(=O)c1cc(C#N)c[nH]1 [Compound 26, 8-O-4-Cyano-1H-pyrrole-2′-carbonylbranimycin]	–	8 µg/mL (≈ 13.3 µM)
COC/C(=N\OC)[C@H]1OC(=O)[C@H](COC)[C@H]2C=C[C@H]3[C@H]4O[C@]2(/C(C)=C/[C@H]1C)[C@@H]3[C@H](O)[C@@H](COC)[C@H]4OC(=O)c1ccc[nH]1 [Compound 27, 18-Deoxy-18-methoximino-8-O-1H-pyrrole-2′-carbonylbranimycin]	–	8 µg/mL (≈ 13.3 µM)
COC[C@@H]1[C@@H](O)[C@@H]2[C@H]3C=C[C@@H]4[C@@H](COC)C(=O)O[C@H]([C@H](O)COC)[C@H](C)/C=C(\C)[C@@]24O[C@H]3[C@@H]1OC(=O)c1cc(Cl)c[nH]1 [Compound 28, 8-O-4-Chloro-1H-pyrrole-2′-carbonylbranimycin]	–	4 µg/mL (≈ 6.56 µM)
COCC(=NOC(C)=O)[C@H]1OC(=O)[C@H](COC)[C@H]2C=C[C@H]3[C@H]4O[C@]2(/C(C)=C/[C@H]1C)[C@@H]3[C@H](O)[C@@H](COC)[C@H]4OC(=O)c1ccc[nH]1 [Compound 29, 18-Acetylimino-18-deoxy-8-O-1H-pyrrole-2′-carbonylbranimycin]	–	2 µg/mL (≈ 3.17 µM)
COC[C@@H](O)[C@H]1OC(=O)[C@H](COC)[C@H]2C=C[C@H]3[C@H]4O[C@]2(/C(C)=C/[C@H]1C)[C@@H]3[C@H](O)[C@@H](C)[C@H]4OC(=O)c1cc(Cl)c[nH]1 [Compound 30, 8-O-4-Chloro-1H-pyrrole-2′-carbonylbaleomycin]	–	4 µg/mL (≈ 6.9 µM)
COC[C@@H]1[C@@H](O)[C@@H]2[C@H]3C=C[C@@H]4[C@@H](COC)C(=O)O[C@H]([C@H](O)COC)[C@H](C)/C=C(\C)[C@@]24O[C@H]3[C@@H]1OC(=O)c1cc(Br)c[nH]1 [Compound 32, 8-O-4-Bromo-1H-pyrrole-2′-carbonylbranimycin]	–	4 µg/mL (≈ 6.11 µM)
COC[C@@H]1[C@@H](O)[C@@H]2[C@H]3C=C[C@@H]4[C@@H](COC)C(=O)O[C@H]([C@H](O)COC)[C@H](C)/C=C(\C)[C@@]24O[C@H]3[C@@H]1OC(=O)c1cc(Br)c(Br)[nH]1 [Compound 34, 8-O-4,5-Dibromo-1H-pyrrole-2′-carbonylbranimycin]	–	8 µg/mL (≈ 10.9 µM)
COC[C@@H]1[C@@H](O)[C@@H]2[C@H]3C=C[C@@H]4[C@@H](COC)C(=O)O[C@H]([C@H](O)COC)[C@H](C)/C=C(\C)[C@@]24O[C@H]3[C@@H]1OC(=O)c1cc(Br)c(Br)o1 [Compound 36, 8-O-4,5-Dibromofurane-2′-carbonylbranimycin]	–	32 µg/mL (≈ 43.6 µM)
